Assays:
[1] = biological target: T1, CYP2E1 (Mus musculus, UniProt Q05421); test: Mouse liver microsomal incubation with clomethiazole, specific inhibitor of CYP2E1; assay type: in vitro ADME; details: mouse liver microsomes 1 mg/mL, 60 min, 37°C, component 100 ng/mL, vs negative control without inhibitor
T1 construct: from tissue; host or cells: liver microsomes of control (db/m) mice
Experimental: (§1) All reactions were performed in triplicate.

[2] = Metabolic conversion in the liver microsomal incubation system without inhibitor; details: for Metabolic conversion rate under different reaction times: 0, 15, 30, 45, 60, 90 min at 37°C; for Metabolic conversion rate at different protein concentrations: liver microsomal protein 0, 0.25, 0.5, 0.75, 1, 2 mg/mL, 60 min
Experimental: Before the experiment, the mice were fasted for 12 h, and were euthanized after blood was taken from the eye sockets. The liver was quickly removed and perfused with pre-cooled saline through the hepatic portal vein until the liver was earthy yellow, washed three times with 1.15% KCl solution, wiped dry with filter paper, and then weighed. The liver was then cut up, homogenized with three times the volume of ethylene diamine tetraacetic acid (EDTA) in an ice bath, and centrifuged at 4°C for 10 min at 3,000 g. The supernatant was filtered, and the filtrate was centrifuged at 4°C for 20 min at 12,000 g. The supernatant was then centrifuged at 4°C for 45 min at 100,000 g, and the precipitate was resuspended in a resuspension solution (EDTA homogenate containing 20% glycerol). The protein concentration of the microsomes was determined using the BCA protein concentration determination kit, and the microsomes were aliquoted and pre-stored at −20°C for 60 min and transferred to −80°C for storage.
The total volume of the reaction was kept at 200 μL. The in vitro incubation system comprised of 50 μL liver microsomes (1 mg/mL), 50 μL specific inhibitor solution, 20 μL nicotinamide adenine dinucleotide phosphate (NADPH, 1 mmol/L), and 80 μL standard solution (100 ng/mL). The solution containing liver microsomes, specific inhibitors, and the standard solution was pre-incubated for 5 min at 37°C. NADPH, pre-incubated for 5 min at 37°C, was added to commence the reaction, and the solution was incubated for 60 min at 37°C on a thermostatic oscillator. At the end of the reaction, […] of ice-cold methanol containing the IS (the final concentrations of digoxin and puerarin were 0.745 μg/mL and 1 μg/mL, respectively) was added to terminate the reaction. The samples were vortexed for 1 min and centrifuged for 10 min (15,000 r/min). The contents of six active components in the supernatant were determined by HPLC-MS-MS. All reactions were performed in triplicate.
The six-component mixed standard solutions were incubated with the liver microsomal sample of different protein concentrations (0, 0.25, 0.5, 0.75, 1, 2 mg/mL) for 60 min, each with six replicates. Subsequently, samples were prepared according to the methods described in Section 2.6. The residual contents of the six effective components in each group were determined by HPLC-MS/MS to calculate the metabolic conversion rate.
The mixed standard solution containing the six components was incubated with mouse liver microsomes at 37°C for different time (0, 15, 30, 45, 60, 90 min), each with six replicates. Subsequently, samples were prepared according to the methods described in Section 2.6. The residual contents of the six effective components in each group were determined by HPLC-MS/MS to calculate the metabolic conversion rate.
The standard solution of astragaloside IV, glycyrrhizic acid, calycosin-glucuronide, formononetin, calycosin-7-O-β-D-glucoside, and ononin was added to phosphate-buffered saline (PBS, pH 7.0) as desired for dilution to produce a series of mixed solutions (50, 100, 250, 500, 1,000 ng/mL). Each mixed solution sample was incubated with 1.0 mg/mL liver microsomes for 60 min. The residual contents of the six effective components were determined by HPLC-MS/MS to calculate the metabolic conversion rate.
Α-naphthoflavone, quinidine, clomethiazole, ticlopidine, ketoconazole, and fluconazole were selected as specific inhibitors of CYP1A2, CYP2D22, CYP2E1, CYP2C37, CYP3A11, and CYP2C11, respectively ([El-Sherbeni and El-Kadi, 2014]; [Xu et al., 2016]). Forty-eight mice were randomly divided into eight groups of six mice each. The eight groups comprised six different specific inhibitor groups, a negative control group and a control group. For different specific inhibitor groups, mouse liver microsomes were incubated with related CYP450 enzyme specific inhibitors and mixed standard solutions.

[3] = set-up: method as in Wang et al., 2022c; details: oral administration of HQD, ref Wang et al., 2022c; cited from earlier work
[4] = biological target: T2, CYP1A2 (Mus musculus, UniProt P00186); test: Mouse liver microsomal incubation with α-naphthoflavone, specific inhibitor of CYP1A2; assay type: in vitro ADME; details: mouse liver microsomes 1 mg/mL, 60 min, 37°C, component 100 ng/mL, vs negative control without inhibitor
T2 construct: from tissue; host or cells: liver microsomes of control (db/m) mice
T2 sequence (P00186 1-513): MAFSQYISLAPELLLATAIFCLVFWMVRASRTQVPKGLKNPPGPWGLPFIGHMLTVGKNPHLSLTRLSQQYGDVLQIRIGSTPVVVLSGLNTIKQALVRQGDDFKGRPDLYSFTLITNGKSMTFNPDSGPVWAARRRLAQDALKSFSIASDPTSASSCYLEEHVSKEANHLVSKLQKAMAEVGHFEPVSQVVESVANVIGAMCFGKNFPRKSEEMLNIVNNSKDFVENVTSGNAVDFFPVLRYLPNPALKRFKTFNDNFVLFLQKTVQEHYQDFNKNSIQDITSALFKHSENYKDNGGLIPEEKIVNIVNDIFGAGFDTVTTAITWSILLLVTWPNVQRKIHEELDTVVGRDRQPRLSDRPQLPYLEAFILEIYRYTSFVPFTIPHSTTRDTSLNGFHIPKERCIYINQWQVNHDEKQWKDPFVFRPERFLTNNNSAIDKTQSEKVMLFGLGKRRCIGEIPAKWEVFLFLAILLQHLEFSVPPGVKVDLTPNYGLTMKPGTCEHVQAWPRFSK
Experimental: as §1

[5] = tested on: CYP2C11; test: Mouse liver microsomal incubation with fluconazole, specific inhibitor of CYP2C11; assay type: in vitro ADME; details: mouse liver microsomes 1 mg/mL, 60 min, 37°C, component 100 ng/mL, vs negative control without inhibitor
Experimental: as §1

[6] = biological target: T3, CYP2C37 (Mus musculus, UniProt P56654); test: Mouse liver microsomal incubation with ticlopidine, specific inhibitor of CYP2C37; assay type: in vitro ADME; details: mouse liver microsomes 1 mg/mL, 60 min, 37°C, component 100 ng/mL, vs negative control without inhibitor
T3 construct: from tissue; host or cells: liver microsomes of control (db/m) mice
T3 sequence (P56654 21-490): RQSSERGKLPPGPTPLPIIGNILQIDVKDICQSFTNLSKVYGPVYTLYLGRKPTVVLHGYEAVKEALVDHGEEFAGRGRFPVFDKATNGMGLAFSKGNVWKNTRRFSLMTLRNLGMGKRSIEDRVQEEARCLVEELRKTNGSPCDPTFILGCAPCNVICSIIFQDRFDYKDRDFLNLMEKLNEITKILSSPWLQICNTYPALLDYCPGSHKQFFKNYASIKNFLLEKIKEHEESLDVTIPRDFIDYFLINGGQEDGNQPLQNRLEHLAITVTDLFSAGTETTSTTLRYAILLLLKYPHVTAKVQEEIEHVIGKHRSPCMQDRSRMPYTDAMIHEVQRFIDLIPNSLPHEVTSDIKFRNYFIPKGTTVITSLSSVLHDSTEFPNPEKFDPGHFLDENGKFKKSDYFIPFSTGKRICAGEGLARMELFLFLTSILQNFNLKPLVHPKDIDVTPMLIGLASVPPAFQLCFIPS
Experimental: as §1

[7] = tested on: liver CYP450 enzymes; test: Mouse liver microsomal incubation with the panel of specific CYP enzyme inhibitors; assay type: in vitro ADME; details: mouse liver microsomes 1 mg/mL, 60 min, 37°C, component 100 ng/mL; inhibitors of CYP1A2, CYP2D22, CYP2E1, CYP2C37, CYP3A11, CYP2C11
Experimental: as §1

[8] = tested on: CYP3A11; test: Mouse liver microsomal incubation with ketoconazole, specific inhibitor of CYP3A11; assay type: in vitro ADME; details: mouse liver microsomes 1 mg/mL, 60 min, 37°C, component 100 ng/mL, vs negative control without inhibitor
Experimental: as §1

T1 sequence (Q05421 whole entry): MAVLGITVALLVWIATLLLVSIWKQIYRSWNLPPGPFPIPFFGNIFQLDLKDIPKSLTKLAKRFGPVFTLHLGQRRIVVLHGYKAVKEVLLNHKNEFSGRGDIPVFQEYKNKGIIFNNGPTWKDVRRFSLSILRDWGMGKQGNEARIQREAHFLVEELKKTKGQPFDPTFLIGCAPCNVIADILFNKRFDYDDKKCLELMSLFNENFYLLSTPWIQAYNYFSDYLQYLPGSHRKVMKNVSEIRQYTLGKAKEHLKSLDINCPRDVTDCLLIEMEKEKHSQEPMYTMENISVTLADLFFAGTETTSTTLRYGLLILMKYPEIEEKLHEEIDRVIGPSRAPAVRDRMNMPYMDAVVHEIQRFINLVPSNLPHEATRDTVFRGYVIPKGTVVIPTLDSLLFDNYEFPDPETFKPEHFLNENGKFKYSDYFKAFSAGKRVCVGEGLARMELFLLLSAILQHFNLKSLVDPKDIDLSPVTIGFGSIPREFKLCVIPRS

Question: With `COc1ccc(-c2coc3cc(O)ccc3c2=O)cc1O` as the compound, how does the “Effect of clomethiazole (CYP2E1 inhibitor) on metabolism of the component (residual content)” value [1] read?
Answer: The value was “prevented the metabolism”.

Question: What about the “Metabolic conversion rate under different reaction times” value [2] of the same compound?
Answer: Its value is “increased with time, however, saturated after 60 min”.

Question: And the “Metabolic conversion rate at different protein concentrations” value [2]?
Answer: The value was “initially increased with the increase in protein concentration”.

Question: And the “Absorption and elimination in mice with diabetic nephropathy” value (shortened to “Absorption and elimination in mice”) [3]?
Answer: The value was “greater absorption and delayed elimination”.

Question: And the “Effect of α-naphthoflavone (CYP1A2 inhibitor) on metabolism of the component (residual content)” value [4]?
Answer: Its value is “prevented the metabolism”.

Question: Which “Effect of fluconazole (CYP2C11 inhibitor) on metabolism of the component (residual content)” value [5] does the source give for `CC(C)(O)[C@@H]1CC[C@](C)([C@H]2[C@@H](O)C[C@@]3(C)[C@@H]4C[C@H](O[C@@H]5O[C@H](CO)[C@@H](O)[C@H](O)[C@H]5O)[C@H]5C(C)(C)[C@@H](O[C@@H]6OC[C@@H](O)[C@H](O)[C@H]6O)CC[C@@]56C[C@@]46CC[C@]23C)O1` [Astragaloside IV] here?
Answer: The value was “prevented the metabolism”.

Question: What about the “Metabolic conversion rate under different reaction times” value [2] of the same compound?
Answer: Its value is “increased with time, however, saturated after 60 min”.

Question: And the “Metabolic conversion rate at different protein concentrations” value [2]?
Answer: Its value is “initially increased with the increase in protein concentration”.

Question: What about the “Absorption and elimination in mice” value [3] of the same compound?
Answer: Its value is “greater absorption and delayed elimination”.

Question: What about the “Effect of ticlopidine (CYP2C37 inhibitor) on metabolism of the component (residual content)” value [6] of the same compound?
Answer: Its value is “prevented the metabolism”.

Question: For `COc1ccc(-c2coc3cc(O[C@@H]4O[C@H](CO)[C@@H](O)[C@H](O)[C@H]4O)ccc3c2=O)cc1O` [Calycosin-7-O-β-D-glucoside], which “Effect of the specific CYP enzyme inhibitors on metabolism of the component” value [7] is on record?
Answer: Its value is “not affected”.

Question: And the “Metabolic conversion rate under different reaction times” value [2]?
Answer: Its value is “increased with time, however, saturated after 60 min”.

Question: And the “Metabolic conversion rate at different protein concentrations” value [2]?
Answer: The value was “initially increased with the increase in protein concentration”.

Question: What about the “Absorption and elimination in mice” value [3] of the same compound?
Answer: Its value is “greater absorption and delayed elimination”.

Question: Which “Effect of fluconazole (CYP2C11 inhibitor) on metabolism of the component (residual content)” value [5] does the source give for `COc1ccc(-c2coc3cc(O)ccc3c2=O)cc1` [Formononetin] here?
Answer: The value was “prevented the metabolism”.

Question: And the “Metabolic conversion rate under different reaction times” value [2]?
Answer: The value was “increased with time, however, saturated after 60 min”.

Question: What about the “Metabolic conversion rate at different protein concentrations” value [2] of the same compound?
Answer: The value was “initially increased with the increase in protein concentration”.

Question: What about the “Effect of ketoconazole (CYP3A11 inhibitor) on metabolism of the component (residual content)” value [8] of the same compound?
Answer: Its value is “prevented the metabolism”.

Question: What about the “Absorption and elimination in mice” value [3] of the same compound?
Answer: The value was “greater absorption and delayed elimination”.

Question: Which results are given for `CC1(C)[C@@H](O[C@H]2O[C@H](C(=O)O)[C@@H](O)[C@H](O)[C@H]2O[C@@H]2O[C@H](C(=O)O)[C@@H](O)[C@H](O)[C@H]2O)CC[C@]2(C)[C@H]3C(=O)C=C4[C@@H]5C[C@@](C)(C(=O)O)CC[C@]5(C)CC[C@@]4(C)[C@]3(C)CC[C@@H]12` [Glycyrrhizic acid]?
Answer: Metabolic conversion rate under different reaction times [2]: increased with time, however, saturated after 60 min; Metabolic conversion rate at different protein concentrations [2]: initially increased with the increase in protein concentration; Effect of ketoconazole (CYP3A11 inhibitor) on metabolism of the component (residual content) [8]: prevented the metabolism; Absorption and elimination in mice with diabetic nephropathy [3]: greater absorption and delayed elimination; Effect of ticlopidine (CYP2C37 inhibitor) on metabolism of the component (residual content) [6]: prevented the metabolism

Question: With `COc1ccc(-c2coc3cc(O[C@@H]4O[C@H](CO)[C@@H](O)[C@H](O)[C@H]4O)ccc3c2=O)cc1` [Ononin] as the compound, how does the “Effect of the specific CYP enzyme inhibitors on metabolism of the component” value [7] read?
Answer: Its value is “not affected”.

Question: What about the “Metabolic conversion rate under different reaction times” value [2] of the same compound?
Answer: Its value is “increased with time, however, saturated after 60 min”.

Question: What about the “Metabolic conversion rate at different protein concentrations” value [2] of the same compound?
Answer: The value was “initially increased with the increase in protein concentration”.

Question: And the “Absorption and elimination in mice” value [3]?
Answer: Its value is “greater absorption and delayed elimination”.

— PMC10146250, “Study on the liver Drug’s dominant metabolic enzymes for six effective components of the Huang qi Liuyi decoction” (Frontiers in Pharmacology, 2023)
